Source: patent US9340790B2, “Method for constructing recombinant bacterium for producing non-native protein, and utilization of same” (RIKEN, priority 2010, dated 2016)
“And” between values parts separate entries of the source, which are not always exact repeats. Equal entries are not always repeated.

Tests used:
Type in all cases: cell-based, Escherichia coli
[1] = tested on: BW25113RFzero-iy strain; conditions: LB liquid culture medium with the non-natural amino acid added, shaking at 37° C. overnight
Method: First, a minute amount of glycerol stock of a BW25113RFzero-iy strain was added to (i) an LB liquid culture medium and (ii) an LB liquid culture medium to which 3-iodotyrosine (IY), 3-bromotyrosine (BrY) or 3-chlorotyrosine (CIY) had been added, and incubated with shaking at 37° C. overnight. In this way, the growth of the BW25113RFzero-iy strain was examined.

[2] = tested on: RFzero-iy strains (BW25113RFzero-iy, HMS174RFzero-iy, BL21RFzero-iy); experiment: Dependence of growth on 3-iodotyrosine, spotting on non-selective LB culture medium; conditions: non-selective LB culture medium with or without 3-iodotyrosine
Method: Furthermore, how much the growth of each of the RFzero-iy strains depends on non-natural amino acids was checked. A cell culture having been incubated overnight was diluted, the diluted culture was spotted on (i) a non-selective LB culture medium containing 3-iodotyrosine and (ii) a non-selective LB culture medium containing no 3-iodotyrosine. The media were further incubated. […] This is consistent with the fact that UAG translation activity is necessary in a cell to avoid lethality caused by prfA knockout.

[3] = tested on: BW25113 (prfA+ strain); experiment: Efficiency of non-natural amino acid introduction at UAG codon in prfA+ strain (western blotting, TRX-GST fusion); conditions: prfA+ condition, compared with 3-iodotyrosine
Text: In this experiment, a GST gene containing a UAG codon near the N terminal was introduced, together with an expression unit for introducing a non-natural amino acid, into BW25113 which was a prfA^+ strain. Then, the efficiency of translation was checked. The GST gene containing a UAG codon near the N terminal is incorporated in a plasmid so that a fusion protein of the GST and thioredoxin (TRX) is produced (refer to (a) of FIG. 31). The result is shown in (b) of FIG. 31. […] The strain shown in Lane 1 contains no construct that introduces a non-natural amino acid. As is clear from Lanes 4 to 6, strains into each of which a construct for assigning a UAG codon to 3-iodotyrosine, 4-azidophenylalanine or o-sulfotyrosine has been introduced generate total-length fusion proteins in the presence of corresponding non-natural amino acids (see arrow A in (b) of FIG. 31). Further, in these strains, proteins resulting from termination of translation at the UAG codon were also produced (see arrow B in (b) of FIG. 31). The number in parentheses below each lane indicates the percentage (%) of total-length fusion protein with respect to the sum of the proteins resulting from termination of translation and the full-length fusion protein thus produced. That is, the number indicates the efficiency of non-natural amino acid introduction at the UAG codon. […]

[4] = tested on: HST08; experiment: Chloramphenicol (Cm) resistance of cat transformants
Text: (§1) Furthermore, a RFzero-q strain was transformed with a mutated gene which codes for cat, and in which mutated gene there are ten amber codons in ORF (such a mutated gene is referred to as cat(10Am)). […] The “X”s in the amino acid sequence shown in (b) of FIG. 5 indicate positions of amber codons of the cat(10Am), and are glutamic acids in the case of the RFzero-q strain (SEQ ID NO: 18).
(§2) In order to examine if the UAG translation efficiency was improved, a cat(13Am) in which all 13 of the glutamine codons on the cat gene were replaced with UAG was introduced into the RFzero-q3 and RFzero-q7 strains, respectively. […] This was lower than Cm resistance (400 μg/ml) in the HST08 and RFzero-q strains transformed with pACYC184 carrying the wild-type cat gene.

[5] = tested on: RFzero-q strain; experiment: as above
Text: In order to confirm that the RFzero-q strain allows insertion of a glutamic acid at an amber codon, the RFzero-q strain was transformed with a mutated gene which codes for chloramphenicol acetyltransferase (cat), in which mutated gene there are three amber codons in ORF (such a mutated gene is referred to as cat(3Am)). […] The “X”s in the amino acid sequence shown in (a) of FIG. 5 indicate the positions of amber codons of the cat(3Am), and are glutamic acids in the case of the RFzero-q strain (SEQ ID NO: 17).
as §1, §2

[6] = tested on: RFzero-q7 strain; experiment: Chloramphenicol (Cm) resistance of cat(13Am) transformant; conditions: RFzero-q7 strain with cat(13Am)
Method: as §2

[7] = tested on: RFzero-q3 strain; experiment: as above; conditions: RFzero-q3 strain with cat(13Am); listed as Cm
Method: as §2

For `N[C@@H](Cc1ccc(O)c(Br)c1)C(=O)O` [BrY, 3-bromotyrosine], the OD600 [1] was 1.39.
`N[C@@H](Cc1ccc(O)c(I)c1)C(=O)O` [IY, 3-iodotyrosine] was tested, and the “Dependence of growth on the non-natural amino acid” value [2] was “totally depended on the presence of 3-iodotyrosine” and the OD600 [1] was 1.36.
In the case of `[N-]=[N+]=Nc1ccc(C[C@H](N)C(=O)O)cc1` [AzF, 4-azidophenylalanine], the “Efficiency of non-natural amino acid introduction at the UAG codon” value [3] is reported as “lower efficiency than 3-iodotyrosine”.
`O=C(N[C@H](CO)[C@H](O)c1ccc([N+](=O)[O-])cc1)C(Cl)Cl` [chloramphenicol] was tested, and the “Cm concentration at which the strain did not grow” value ([4]; HST08 into which cat(10Am) had been introduced) was less than 10 µg/mL, the Cm resistance ([4]; HST08 transformed with pACYC184 carrying the wild-type cat gene) was 400 µg/mL and the “Cm resistance (chloramphenicol concentration in culture medium up to which resistance was shown)” value ([5]; RFzero-q strain transformed with cat(3Am)) was 400 µg/mL. For the same molecule, the “Cm resistance (chloramphenicol concentration in culture medium up to which resistance was shown)” value ([5]; RFzero-q strain transformed with cat(10Am)) was 200 µg/mL, the Cm resistance ([5]; RFzero-q strain transformed with pACYC184 carrying the wild-type cat gene) was 400 µg/mL and the “Cm resistance (chloramphenicol concentration in culture medium up to which resistance was shown)” value ([5]; RFzero-q strain transformed with wild-type cat) was 400 µg/mL. The Cm resistance [6] was 200 µg/mL and the Cm resistance [7] was 200 µg/mL and ~400 µg/mL.
Work on `N[C@@H](Cc1ccc(O)c(Cl)c1)C(=O)O` [ClY, 3-chlorotyrosine] yielded an OD600 [1] of 1.41.
